From the NIST ThermoML archive (doi:10.1021/acs.jced.8b00662)
± gives the expanded uncertainty stated by the source.

Test: xn = mol fraction of the nth substance listed
Conditions: 100 kPa, Liquid; for viscosity: Falling or rolling sphere viscometry; for mass density: Vibrating tube method

CC(C)C1CCCCC1 [(1-methylethyl)cyclohexane] + c1ccc2c(c1)CCCC2
Conditions | mass density [kg/m3] | viscosity [mPa·s]
293.15 K, x2 = 0 | 802.14 ± 0.97 | 1.093 ± 0.023
293.15 K, x2 = 0.0995 | 816.67 ± 0.99 | 1.129 ± 0.024
293.15 K, x2 = 0.1995 | 831.75 ± 1 | 1.195 ± 0.026
293.15 K, x2 = 0.299 | 847.23 ± 1 | 1.258 ± 0.027
293.15 K, x2 = 0.4004 | 863.44 ± 1 | 1.334 ± 0.028
293.15 K, x2 = 0.5006 | 879.87 ± 1.1 | 1.436 ± 0.031
293.15 K, x2 = 0.5995 | 896.5 ± 1.1 | 1.543 ± 0.033
293.15 K, x2 = 0.7015 | 914.1 ± 1.1 | 1.671 ± 0.036
293.15 K, x2 = 0.7991 | 931.39 ± 1.1 | 1.823 ± 0.039
293.15 K, x2 = 0.9006 | 949.99 ± 1.1 | 2.008 ± 0.043
298.15 K, x2 = 0 | 798.24 ± 0.97 | 1.016 ± 0.022
298.15 K, x2 = 0.0995 | 812.77 ± 0.99 | 1.053 ± 0.023
298.15 K, x2 = 0.1995 | 827.85 ± 1 | 1.108 ± 0.024
298.15 K, x2 = 0.299 | 843.32 ± 1 | 1.165 ± 0.025
298.15 K, x2 = 0.4004 | 859.53 ± 1 | 1.233 ± 0.026
298.15 K, x2 = 0.5006 | 875.96 ± 1.1 | 1.324 ± 0.028
298.15 K, x2 = 0.5995 | 892.57 ± 1.1 | 1.416 ± 0.03
298.15 K, x2 = 0.7015 | 910.16 ± 1.1 | 1.531 ± 0.033
298.15 K, x2 = 0.7991 | 927.44 ± 1.1 | 1.662 ± 0.035
298.15 K, x2 = 0.9006 | 946.04 ± 1.1 | 1.824 ± 0.039
303.15 K, x2 = 0 | 794.34 ± 0.96 | 0.947 ± 0.02
303.15 K, x2 = 0.0995 | 808.86 ± 0.98 | 0.98 ± 0.021
303.15 K, x2 = 0.1995 | 823.93 ± 1 | 1.03 ± 0.022
303.15 K, x2 = 0.299 | 839.4 ± 1 | 1.08 ± 0.023
303.15 K, x2 = 0.4004 | 855.61 ± 1 | 1.143 ± 0.024
303.15 K, x2 = 0.5006 | 872.03 ± 1.1 | 1.225 ± 0.026
303.15 K, x2 = 0.5995 | 888.63 ± 1.1 | 1.305 ± 0.028
303.15 K, x2 = 0.7015 | 906.22 ± 1.1 | 1.407 ± 0.03
303.15 K, x2 = 0.7991 | 923.49 ± 1.1 | 1.521 ± 0.032
303.15 K, x2 = 0.9006 | 942.08 ± 1.1 | 1.667 ± 0.035
308.15 K, x2 = 0 | 790.43 ± 0.96 | 0.886 ± 0.019
308.15 K, x2 = 0.0995 | 804.95 ± 0.98 | 0.916 ± 0.02
308.15 K, x2 = 0.1995 | 820.02 ± 0.99 | 0.961 ± 0.021
308.15 K, x2 = 0.299 | 835.48 ± 1 | 1.007 ± 0.022
308.15 K, x2 = 0.4004 | 851.68 ± 1 | 1.064 ± 0.023
308.15 K, x2 = 0.5006 | 868.1 ± 1.1 | 1.137 ± 0.024
308.15 K, x2 = 0.5995 | 884.69 ± 1.1 | 1.208 ± 0.026
308.15 K, x2 = 0.7015 | 902.28 ± 1.1 | 1.3 ± 0.028
308.15 K, x2 = 0.7991 | 919.54 ± 1.1 | 1.404 ± 0.03
308.15 K, x2 = 0.9006 | 938.12 ± 1.1 | 1.532 ± 0.033
313.15 K, x2 = 0 | 786.51 ± 0.95 | 0.831 ± 0.018
313.15 K, x2 = 0.0995 | 801.03 ± 0.97 | 0.859 ± 0.018
313.15 K, x2 = 0.1995 | 816.1 ± 0.99 | 0.9 ± 0.019
313.15 K, x2 = 0.299 | 831.55 ± 1 | 0.942 ± 0.02
313.15 K, x2 = 0.4004 | 847.75 ± 1 | 0.994 ± 0.021
313.15 K, x2 = 0.5006 | 864.17 ± 1 | 1.06 ± 0.023
313.15 K, x2 = 0.5995 | 880.76 ± 1.1 | 1.124 ± 0.024
313.15 K, x2 = 0.7015 | 898.34 ± 1.1 | 1.207 ± 0.026
313.15 K, x2 = 0.7991 | 915.59 ± 1.1 | 1.3 ± 0.028
313.15 K, x2 = 0.9006 | 934.17 ± 1.1 | 1.413 ± 0.03
318.15 K, x2 = 0 | 782.59 ± 0.95 | 0.782 ± 0.017
318.15 K, x2 = 0.0995 | 797.11 ± 0.97 | 0.798 ± 0.017
318.15 K, x2 = 0.1995 | 812.17 ± 0.98 | 0.837 ± 0.018
318.15 K, x2 = 0.299 | 827.63 ± 1 | 0.876 ± 0.019
318.15 K, x2 = 0.4004 | 843.82 ± 1 | 0.925 ± 0.02
318.15 K, x2 = 0.5006 | 860.23 ± 1 | 0.986 ± 0.021
318.15 K, x2 = 0.5995 | 876.81 ± 1.1 | 1.045 ± 0.022
318.15 K, x2 = 0.7015 | 894.39 ± 1.1 | 1.121 ± 0.024
318.15 K, x2 = 0.7991 | 911.63 ± 1.1 | 1.206 ± 0.026
318.15 K, x2 = 0.9006 | 930.21 ± 1.1 | 1.309 ± 0.028
323.15 K, x2 = 0 | 778.66 ± 0.95 | 0.738 ± 0.016
323.15 K, x2 = 0.0995 | 793.18 ± 0.96 | 0.761 ± 0.016
323.15 K, x2 = 0.1995 | 808.24 ± 0.98 | 0.795 ± 0.017
323.15 K, x2 = 0.299 | 823.7 ± 1 | 0.831 ± 0.018
323.15 K, x2 = 0.4004 | 839.88 ± 1 | 0.875 ± 0.019
323.15 K, x2 = 0.5006 | 856.3 ± 1 | 0.93 ± 0.02
323.15 K, x2 = 0.5995 | 872.87 ± 1.1 | 0.982 ± 0.021
323.15 K, x2 = 0.7015 | 890.45 ± 1.1 | 1.05 ± 0.022
323.15 K, x2 = 0.7991 | 907.69 ± 1.1 | 1.123 ± 0.024
323.15 K, x2 = 0.9006 | 926.26 ± 1.1 | 1.219 ± 0.026
328.15 K, x2 = 0 | 774.72 ± 0.94 | 0.698 ± 0.015
328.15 K, x2 = 0.0995 | 789.24 ± 0.96 | 0.72 ± 0.015
328.15 K, x2 = 0.1995 | 804.3 ± 0.98 | 0.751 ± 0.016
328.15 K, x2 = 0.299 | 819.76 ± 0.99 | 0.784 ± 0.017
328.15 K, x2 = 0.4004 | 835.94 ± 1 | 0.825 ± 0.018
328.15 K, x2 = 0.5006 | 852.35 ± 1 | 0.875 ± 0.019
328.15 K, x2 = 0.5995 | 868.92 ± 1.1 | 0.922 ± 0.02
328.15 K, x2 = 0.7015 | 886.5 ± 1.1 | 0.985 ± 0.021
328.15 K, x2 = 0.7991 | 903.74 ± 1.1 | 1.051 ± 0.022
328.15 K, x2 = 0.9006 | 922.3 ± 1.1 | 1.137 ± 0.024
333.15 K, x2 = 0 | 770.77 ± 0.94 | 0.661 ± 0.014
333.15 K, x2 = 0.0995 | 785.29 ± 0.95 | 0.681 ± 0.015
333.15 K, x2 = 0.1995 | 800.35 ± 0.97 | 0.711 ± 0.015
333.15 K, x2 = 0.299 | 815.81 ± 0.99 | 0.741 ± 0.016
333.15 K, x2 = 0.4004 | 831.99 ± 1 | 0.779 ± 0.017
333.15 K, x2 = 0.5006 | 848.4 ± 1 | 0.825 ± 0.018
333.15 K, x2 = 0.5995 | 864.97 ± 1 | 0.869 ± 0.019
333.15 K, x2 = 0.7015 | 882.54 ± 1.1 | 0.926 ± 0.02
333.15 K, x2 = 0.7991 | 899.78 ± 1.1 | 0.986 ± 0.021
333.15 K, x2 = 0.9006 | 918.35 ± 1.1 | 1.065 ± 0.023
338.15 K, x2 = 0 | 766.81 ± 0.93 | 0.628 ± 0.013
338.15 K, x2 = 0.0995 | 781.34 ± 0.95 | 0.647 ± 0.014
338.15 K, x2 = 0.1995 | 796.4 ± 0.97 | 0.674 ± 0.014
338.15 K, x2 = 0.299 | 811.85 ± 0.98 | 0.703 ± 0.015
338.15 K, x2 = 0.4004 | 828.03 ± 1 | 0.737 ± 0.016
338.15 K, x2 = 0.5006 | 844.44 ± 1 | 0.78 ± 0.017
338.15 K, x2 = 0.5995 | 861.01 ± 1 | 0.82 ± 0.017
338.15 K, x2 = 0.7015 | 878.57 ± 1.1 | 0.873 ± 0.019
338.15 K, x2 = 0.7991 | 895.81 ± 1.1 | 0.928 ± 0.02
338.15 K, x2 = 0.9006 | 914.37 ± 1.1 | 0.999 ± 0.021
343.15 K, x2 = 0 | 762.84 ± 0.93 | 0.598 ± 0.013
343.15 K, x2 = 0.0995 | 777.38 ± 0.95 | 0.616 ± 0.013
343.15 K, x2 = 0.1995 | 792.44 ± 0.96 | 0.641 ± 0.014
343.15 K, x2 = 0.299 | 807.89 ± 0.98 | 0.668 ± 0.014
343.15 K, x2 = 0.4004 | 824.07 ± 1 | 0.7 ± 0.015
343.15 K, x2 = 0.5006 | 840.47 ± 1 | 0.74 ± 0.016
343.15 K, x2 = 0.5995 | 857.04 ± 1 | 0.776 ± 0.017
343.15 K, x2 = 0.7015 | 874.6 ± 1.1 | 0.825 ± 0.018
343.15 K, x2 = 0.7991 | 891.84 ± 1.1 | 0.875 ± 0.019
343.15 K, x2 = 0.9006 | 910.39 ± 1.1 | 0.942 ± 0.02
